Experimental data reported in US20110086759A1, “CHEMICAL COMPOUNDS” (SYNGENTA CROP PROTECTION, INC., priority 2007, published 2011).

What was measured:
Assay type in all cases: in vivo
[1] = tested on: Amaranthus retoflexus (AMARE); assay: Pre-emergence biological efficacy, glasshouse pot test; conditions: Amaranthus retroflexus, 312 h
Summary of the method: (§1)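 Standard soil, pots, sown then sprayed at day 1 with 1000 or 250 g/ha test compound. Glasshouse: 24/16 °C, 14 h photoperiod, 65% humidity, twice-daily watering. Evaluation day 13, 0–100 damage score.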

Setaria faberi (SETFA) [2] = assay: as above; conditions: 312 h
Summary of the method: as §1

[3] = tested on: Echinochloa crus-galli (ECHCG); assay: as above; conditions: 312 h
Summary of the method: as §1

Solanum nigrum (SOLNI) [4] = assay: as above; conditions: 312 h
Summary of the method: as §1

[5] = tested on: Alopecurus myosuroides (ALOMY); assay: as above; conditions: 312 h
Summary of the method: as §1

[6] = tested on: Ipomea hederaceae (IPOHE); assay: as above; conditions: Ipomoea hederacea, 312 h
Summary of the method: as §1

[7] = tested on: Amaranthus retoflexus (AMARE); assay: Post-emergence biological efficacy, glasshouse pot test; conditions: Amaranthus retroflexus, 312 h
Summary of the method: (§2)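 Scored 13 days after spraying on a 0 (no damage) to 100 (total damage) scale. Treatment was a post-emergence spray at 1000 or 250 g/ha, from acetone/water 50:50 plus 0.5% Tween 20, onto 8-day-old plants in soil pots. Growth at 24/16° C, 14 h photoperiod, 65% humidity, watered twice daily.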

Setaria faberi (SETFA) [8] = assay: as above; conditions: 312 h
Summary of the method: as §2

[9] = tested on: Echinochloa crus-galli (ECHCG); assay: as above; conditions: 312 h
Summary of the method: as §2

Solanum nigrum (SOLNI) [10] = assay: as above; conditions: 312 h
Summary of the method: as §2

[11] = tested on: Alopecurus myosuroides (ALOMY); assay: as above; conditions: 312 h
Summary of the method: as §2

[12] = tested on: Ipomea hederaceae (IPOHE); assay: as above; conditions: Ipomoea hederacea, 312 h
Summary of the method: as §2

[13] = pre-emergence, 1,000 g/ha, evaluated after 13 days (100=total damage; 0=no damage), read-out: Percentage damage AMARE
[14] = pre-emergence, 1,000 g/ha, evaluated after 13 days (100=total damage; 0=no damage), read-out: Percentage damage SETFA
[15] = pre-emergence, 1,000 g/ha, evaluated after 13 days (100=total damage; 0=no damage), read-out: Percentage damage ECHCG
[16] = pre-emergence, 1,000 g/ha, evaluated after 13 days (100=total damage; 0=no damage), read-out: Percentage damage SOLNI
[17] = pre-emergence, 1,000 g/ha, evaluated after 13 days (100=total damage; 0=no damage), read-out: Percentage damage ALOMY
[18] = pre-emergence, 1,000 g/ha, evaluated after 13 days (100=total damage; 0=no damage), read-out: Percentage damage IPOHE
[19] = post-emergence, 1,000 g/ha, evaluated after 13 days (100=total damage; 0=no damage), read-out: Percentage damage caused to weed species, AMARE
[20] = post-emergence, 1,000 g/ha, evaluated after 13 days (100=total damage; 0=no damage), read-out: Percentage damage caused to weed species, SETFA
[21] = post-emergence, 1,000 g/ha, evaluated after 13 days (100=total damage; 0=no damage), read-out: Percentage damage caused to weed species, ECHCG
[22] = post-emergence, 1,000 g/ha, evaluated after 13 days (100=total damage; 0=no damage), read-out: Percentage damage caused to weed species, SOLNI
[23] = post-emergence, 1,000 g/ha, evaluated after 13 days (100=total damage; 0=no damage), read-out: Percentage damage caused to weed species, ALOMY
[24] = post-emergence, 1,000 g/ha, evaluated after 13 days (100=total damage; 0=no damage), read-out: Percentage damage caused to weed species, IPOHE
[25] = pre-emergence, rate 1,000 g/ha, evaluated after 13 days (100=total damage to plant; 0=no damage), read-out: Percentage damage caused to weed species, AMARE
[26] = pre-emergence, rate 1,000 g/ha, evaluated after 13 days (100=total damage to plant; 0=no damage), read-out: Percentage damage caused to weed species, SETFA
[27] = pre-emergence, rate 1,000 g/ha, evaluated after 13 days (100=total damage to plant; 0=no damage), read-out: Percentage damage caused to weed species, ECHCG
[28] = pre-emergence, rate 1,000 g/ha, evaluated after 13 days (100=total damage to plant; 0=no damage), read-out: Percentage damage caused to weed species, SOLNI
[29] = pre-emergence, rate 1,000 g/ha, evaluated after 13 days (100=total damage to plant; 0=no damage), read-out: Percentage damage caused to weed species, ALOMY
[30] = pre-emergence, rate 1,000 g/ha, evaluated after 13 days (100=total damage to plant; 0=no damage), read-out: Percentage damage caused to weed species, IPOHE
[31] = Rate 1,000 g/ha, post-emergence spray, evaluated after 13 days (100=total damage to plant; 0=no damage to plant), read-out: Percentage damage caused to weed species, post-emergence, AMARE
[32] = Rate 1,000 g/ha, post-emergence spray, evaluated after 13 days (100=total damage to plant; 0=no damage to plant), read-out: Percentage damage caused to weed species, post-emergence, SETFA
[33] = Rate 1,000 g/ha, post-emergence spray, evaluated after 13 days (100=total damage to plant; 0=no damage to plant), read-out: Percentage damage caused to weed species, post-emergence, ECHCG
[34] = Rate 1,000 g/ha, post-emergence spray, evaluated after 13 days (100=total damage to plant; 0=no damage to plant), read-out: Percentage damage caused to weed species, post-emergence, SOLNI
[35] = Rate 1,000 g/ha, post-emergence spray, evaluated after 13 days (100=total damage to plant; 0=no damage to plant), read-out: Percentage damage caused to weed species, post-emergence, ALOMY
[36] = Rate 1,000 g/ha, post-emergence spray, evaluated after 13 days (100=total damage to plant; 0=no damage to plant), read-out: Percentage damage caused to weed species, post-emergence, IPOHE

Structure (SMILES) | pest or weed control at 1000 g/ha [1, 13] | pest or weed control at 1000 g/ha (Setaria faberi (SETFA) [2]; [14]) | pest or weed control at 1000 g/ha [3, 15] | pest or weed control at 1000 g/ha (Solanum nigrum (SOLNI) [4]; [16]) | pest or weed control at 1000 g/ha [5, 17] | pest or weed control at 1000 g/ha [6, 18] | pest or weed control at 1000 g/ha [7, 19] | pest or weed control at 1000 g/ha (Setaria faberi (SETFA) [8]; [20]) | pest or weed control at 1000 g/ha [1, 25] | pest or weed control at 1000 g/ha (Setaria faberi (SETFA) [2]; [26]) | pest or weed control at 1000 g/ha [3, 27] | pest or weed control at 1000 g/ha (Solanum nigrum (SOLNI) [4]; [28]) | pest or weed control at 1000 g/ha [5, 29] | pest or weed control at 1000 g/ha [6, 30] | pest or weed control at 1000 g/ha [7, 31] | pest or weed control at 1000 g/ha (Setaria faberi (SETFA) [8]; [32]) | pest or weed control at 1000 g/ha [9, 33] | pest or weed control at 1000 g/ha (Solanum nigrum (SOLNI) [10]; [34]) | pest or weed control at 1000 g/ha [11, 35] | pest or weed control at 1000 g/ha [12, 36] | also measured
COC(=O)c1nc(C2CC2)nc(NCCSCc2c(Cl)cccc2Cl)c1Cl [Compound 4-263, 5-Chloro-2-cyclopropyl-4-{2-[(2,6-dichloro-phenyl)methylthio]-ethylamino}-6-methoxycarbonyl-pyrimidine] | 30% | 0% | 0% | 10% | 0% | 30% | 90% | 30% | – | – | – | – | – | – | – | – | – | – | – | – | pest or weed control at 1000 g/ha [9, 21]: 0%; pest or weed control at 1000 g/ha (Solanum nigrum (SOLNI) [10]; [22]): 60%; pest or weed control at 1000 g/ha [11, 23]: 0%; pest or weed control at 1000 g/ha [12, 24]: 50%
COc1c(Cl)ccc(-c2nc(NCc3ccco3)c(Cl)c(C(=O)O)n2)c1F [Compound 109-125, 5-Chloro-2-(4-chloro-2-fluoro-3-methoxyphenyl)-4-(furan-2-yl-methyl-amino)pyrimidine-6-carboxylic acid] | – | – | – | – | – | – | – | – | 100% | 90% | 90% | 100% | 70% | 100% | 100% | 90% | 80% | 90% | 70% | 100% | –
CC(C)COC(=O)c1nc(C2CC2)nc(NCc2ccco2)c1Cl [Compound 199-125, 5-Chloro-2-cyclopropyl-4-(2-furanylmethyl-amino)-6-iso-butoxycarbonyl-pyrimidine] | – | – | – | – | – | – | – | – | 100% | 80% | 50% | 100% | 40% | 100% | 100% | 70% | 70% | 80% | 20% | 100% | –
COC(=O)c1nc(-c2ccc(C)c(Cl)c2)nc(NCc2ccco2)c1Cl [Compound 239-48, 5-Chloro-2-(3-chloro-4-methylphenyl)-4-(furan-2-yl-methyl-amino)-6-methoxy-carbonylpyrimidine] | – | – | – | – | – | – | – | – | 0% | 0% | 0% | 0% | 0% | 0% | 20% | 0% | 0% | 30% | 0% | 30% | –
COC(=O)c1nc(C2CC2)nc(N(C)Cc2cccc(C(F)(F)F)c2)c1Cl [Compound 5-76, 5-Chloro-2-cyclopropyl-6-methoxycarbonyl-4-[N-methyl-N-(3-trifluoromethyl-phenylmethyl)-amino]pyrimidine] | – | – | – | – | – | – | – | – | 80% | 30% | 20% | 40% | 10% | 60% | 100% | 80% | 50% | 90% | 40% | 90% | –
COC(=O)c1nc(C2CC2)nc(NC(CO)C2CCOC2)c1Cl (stereo not drawn) [Compound 4-201, 5-Chloro-2-cyclopropyl-4-(2-hydroxy-1-tetrahydrofuran-3-yl-ethylamino)-6-methoxycarbonyl-pyrimidine] | 100% | 10% | 20% | 100% | 0% | 100% | 100% | 20% | – | – | – | – | – | – | – | – | – | – | – | – | pest or weed control at 1000 g/ha [9, 21]: 10%; pest or weed control at 1000 g/ha (Solanum nigrum (SOLNI) [10]; [22]): 90%; pest or weed control at 1000 g/ha [11, 23]: 10%; pest or weed control at 1000 g/ha [12, 24]: 60%
COC(=O)c1nc(C2CC2)nc(N(C)Cc2ccc(Br)cc2)c1Cl [Compound 5-69, 4-[N-(4-Bromo-phenylmethyl)-N-methyl-amino]-5-chloro-2-cyclo-propyl-6-methoxy-carbonylpyrimidine] | – | – | – | – | – | – | – | – | 70% | 0% | 10% | 20% | 10% | 50% | 100% | 70% | 50% | 80% | 30% | 80% | –
COC(=O)c1nc(C2CC2)nc(NC(CO)Cc2ccc(Cl)cc2)c1Cl (stereo not drawn) [Compound 4-274, 5-Chloro-4-[2-(4-chlorophenyl)-1-hydroxymethyl-ethylamino]-2-cyclopropyl-6-methoxycarbonyl-pyrimidine] | 60% | 40% | 30% | 80% | 40% | 80% | 100% | 30% | – | – | – | – | – | – | – | – | – | – | – | – | pest or weed control at 1000 g/ha [9, 21]: 20%; pest or weed control at 1000 g/ha (Solanum nigrum (SOLNI) [10]; [22]): 80%; pest or weed control at 1000 g/ha [11, 23]: 30%; pest or weed control at 1000 g/ha [12, 24]: 50%
